PubChem BioAssay (NCI)
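Interpolation was linear, between the two tested concentrations surrounding the appropriate level; five concentrations were tested over 48 hours in 96-well plates. At the TGI there is no net growth.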

Columns and labels:
Experiment in all cases: NCI tumour cell line growth inhibition, 48 h
DLD-1 colon = test system: DLD-1 colon
DMS 114 small cell lung = test system: DMS 114 small cell lung
HOP-18 NSCLC = test system: HOP-18 NSCLC
KM20L2 colon = test system: KM20L2 colon
LXFL 529 NSCLC = test system: LXFL 529 NSCLC
M19-MEL melanoma = test system: M19-MEL melanoma
RXF-631 renal = test system: RXF-631 renal
SNB-78 CNS = test system: SNB-78 CNS
XF 498 CNS = test system: XF 498 CNS
P388 leukemia = test system: P388 leukemia
P388/ADR leukemia = test system: P388/ADR leukemia
SN12K1 renal = test system: SN12K1 renal

Row | Compound | TGI (DLD-1 colon) [µM] | TGI (DMS 114 small cell lung) [µM] | TGI (HOP-18 NSCLC) [µM] | TGI (KM20L2 colon) [µM] | TGI (LXFL 529 NSCLC) [µM] | TGI (M19-MEL melanoma) [µM] | TGI (RXF-631 renal) [µM] | TGI (SNB-78 CNS) [µM] | TGI (XF 498 CNS) [µM] | TGI (P388 leukemia) [µM] | TGI (P388/ADR leukemia) [µM] | TGI (SN12K1 renal) [µM]
1 | CCCCCCCSCC1C(=O)C23C(O)C1CCC2C12COC3(O)C(O)C1C(C)(C)CCC2O (stereo not drawn) | 30 | 23.1 | 25 | 25 | 6.88 | 31.6 | 22 | 47.4 | 33.4 |  |  | 
2 | CCOC(=O)/C=C/c1c[nH]c(C(=O)OCC)c1 | > 100 | > 100 | > 100 | > 100 |  | > 100 |  | > 100 | > 100 | > 100 | > 100 | > 100
3 | FC(F)(F)C1(C(F)(F)F)O[SiH]2(OC(C(F)(F)F)(C(F)(F)F)c3ccccc32)c2ccccc21 |  | 29.1 | 75.1 | 18.4 | 38.5 | 39.4 |  | 52.8 |  |  |  | 
4 | COc1ccc(CCc2ccccc2CC(=O)O)cc1 | > 100 | > 100 | > 100 | > 100 | > 100 | > 100 |  | > 100 | > 100 |  |  | 
